How the values were obtained:
Assay type in all cases: functional
[1] = tested on: Rattus norvegicus; assay: Increase in noradrenergic extracellular noradrenaline level in locally administered Sprague-Dawley rat by microdialysis assay
[2] = target: T1, Adrenergic receptor alpha-2 (Homo sapiens, UniProt P08913+P18825+P18089); assay: Agonist activity at human brain adrenergic alpha2 receptor by [35S]GTPgammaS binding assay
T1 sequence (P08913 whole entry): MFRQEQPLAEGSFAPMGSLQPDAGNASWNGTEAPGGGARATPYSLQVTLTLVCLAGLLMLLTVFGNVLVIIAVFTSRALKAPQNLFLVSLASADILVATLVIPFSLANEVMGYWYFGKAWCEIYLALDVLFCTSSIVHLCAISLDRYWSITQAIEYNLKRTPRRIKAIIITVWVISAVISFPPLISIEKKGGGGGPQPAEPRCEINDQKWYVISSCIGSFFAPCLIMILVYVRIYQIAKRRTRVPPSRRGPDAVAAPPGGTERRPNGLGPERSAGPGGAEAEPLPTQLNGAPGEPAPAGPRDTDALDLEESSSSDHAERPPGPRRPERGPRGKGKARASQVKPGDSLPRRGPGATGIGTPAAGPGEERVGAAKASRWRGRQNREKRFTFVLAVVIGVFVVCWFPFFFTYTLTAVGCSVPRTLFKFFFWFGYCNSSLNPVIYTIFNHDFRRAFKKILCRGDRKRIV
T1 sequence (P18825 whole entry): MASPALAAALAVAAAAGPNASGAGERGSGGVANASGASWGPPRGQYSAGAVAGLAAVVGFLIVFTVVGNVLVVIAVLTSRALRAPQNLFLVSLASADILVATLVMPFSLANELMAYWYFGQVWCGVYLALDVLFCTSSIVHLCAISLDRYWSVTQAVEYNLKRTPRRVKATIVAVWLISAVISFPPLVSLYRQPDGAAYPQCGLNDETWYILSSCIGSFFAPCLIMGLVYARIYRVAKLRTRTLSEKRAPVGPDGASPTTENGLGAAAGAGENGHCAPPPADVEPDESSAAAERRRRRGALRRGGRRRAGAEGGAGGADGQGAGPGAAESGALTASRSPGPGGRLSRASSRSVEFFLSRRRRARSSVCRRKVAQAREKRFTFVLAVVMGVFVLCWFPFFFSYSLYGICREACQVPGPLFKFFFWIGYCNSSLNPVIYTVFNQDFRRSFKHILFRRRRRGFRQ
T1 sequence (P18089 whole entry): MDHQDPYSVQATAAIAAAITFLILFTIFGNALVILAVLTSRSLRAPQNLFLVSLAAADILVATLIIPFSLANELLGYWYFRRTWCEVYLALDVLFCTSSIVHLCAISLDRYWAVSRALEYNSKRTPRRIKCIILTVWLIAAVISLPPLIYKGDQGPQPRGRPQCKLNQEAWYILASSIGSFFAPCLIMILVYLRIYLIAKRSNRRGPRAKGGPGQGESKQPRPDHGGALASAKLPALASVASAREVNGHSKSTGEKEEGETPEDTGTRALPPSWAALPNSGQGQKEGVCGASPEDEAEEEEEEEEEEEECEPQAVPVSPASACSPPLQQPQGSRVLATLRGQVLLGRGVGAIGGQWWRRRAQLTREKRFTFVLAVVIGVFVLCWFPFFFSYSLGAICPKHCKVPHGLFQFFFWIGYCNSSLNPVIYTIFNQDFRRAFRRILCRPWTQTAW

[3] = target: T1, Adrenergic receptor alpha-2; assay: Antagonist activity at human brain adrenergic alpha-2 receptor assessed as UK-14304-stimulated [35S]GTPgammaS binding at 10 uM
[4] = tested on: Rattus norvegicus; assay: Increase in noradrenergic extracellular noradrenaline level in Sprague-Dawley rat at 8 mg/kg, ip by microdialysis assay; conditions: route intraperitoneal

Row | Structure (SMILES) | Activity [1] [%] | EC50 [2] [µM] | EC50 [3] [µM] | Activity [4] [%]
1 | COC1(C2=NCCN2)COc2ccccc2O1 (stereo not drawn) | 287 |  |  | 
2 | COc1ccc(NC2=NCCN2)cc1 |  | 30.4 |  | 
3 | c1cc2c(cc1NC1=NCCN1)OCO2 | 240 |  | 141 | 328
4 | CN(C)c1ccc(NC2=NCCN2)cc1 | 316 |  |  | 192
5 | c1ccc2c(c1)OCC(C1=NCCN1)O2 (stereo not drawn) [IDAZOXAN] | 235 |  |  | 

From ChEMBL document CHEMBL1148758, “Guanidine and 2-aminoimidazoline aromatic derivatives as alpha(2)-adrenoceptor antagonists, 1: toward new antidepressants with heteroatomic linkers” (J Med Chem, 2007)
